Experimental data taken from US20130266535A1, “METHYL SALICYLATE-BASED ATTRACTANTS FOR VECTORS OF CITRUS GREENING DISEASE” (priority 2012, published 2013).

Test system: Diaphorina citri
Experiment: Two-port T-olfactometer behavioral bioassay with synthetic chemicals vs. clean air (solvent-only wick)
Format: in vivo
Conditions: for Proportion of D. citri responding to treatment arm: non-infected female adults, treatment vs solvent control arm
Source text: A custom designed two-port divided T-olfactometer [Analytical Research Systems (ARS), Inc. Gainesville, Fla.] that has been thoroughly described in [98] was used to evaluate behavioral response of D. citri. Briefly, the olfactometer consisted of a 30 cm long glass tube with 3.5 cm internal diameter that is bifurcated into two equal halves with a Teflon strip forming a T-maze. Each half served as an arm of the olfactometer enabling the D. citri to make a choice between two potential odor fields. The olfactometer arms were connected to odor sources placed in 35 cm tall×15 cm wide dome shaped guillotine volatile collection chambers (GVCC) (ARS, Gainesville, Fla.) through Teflon-glass tube connectors. The odor sources comprised 14-16 week old Las-infected or non-infected C. sinensis plants placed in GVCC. Purified and humidified air was pushed through the GVCC via two pumps connected to an air delivery system (ARS, Gainesville, Fla.). A constant airflow of 0.1 L/min was maintained through both arms of the olfactometer. The olfactometer was housed within a temperature-controlled room and positioned vertically under a fluorescent 900-lux light bulb within a fiberboard box for uniform light diffusion. This positioning took advantage of the negative geotactic and positive phototactic response of D. citri.
D. citri adults were released individually into the inlet adapter at the base of the olfactometer. An odor source was randomly assigned to one of the arms of the olfactometer at the beginning of each bioassay and was reversed after every 30 insects to eliminate positional bias. Initially, D. citri adults were exposed to clean air vs. clean air in the olfactometer to verify the absence of positional bias. Thereafter, the behavioral response of non-infected or Las-infected D. citri was tested against non-infected versus Las-infected plants. D. citri adults were also exposed to non-infected grafted (sham grafted) vs. non-grafted-non-infected plants to determine the effects of grafting only on D. citri behavior. For each treatment, C. sinensis plants were grafted with C. aurantifolia budwood four months prior to initiating behavioral experiments. A minimum of 150 male or female D. citri adults were examined per treatment combination (five replications of 30 D. citri). Each D. citri that responded to odors was individually subjected to qPCR to determine Las infection status using the procedures described above.
MeSA was released in greater quantities from Las-infected plants than non-infected plants, while MeAN and D-limonene were released in greater quantities by non-infected than infected plants (See results). Therefore, the behavioral response of D. citri to these synthetic chemicals was tested. A known D. citri attractant, β-ocimene, was used as a positive control. All chemicals were obtained from Sigma Aldrich (St Louis, Mo.) with purities ranging between 97 and 99%. Purity of β-ocimene was 90% and contained a mixture of isomers comprising 20-25% limonene. Each treatment was dissolved in 100 μl of dichloromethane and pipetted onto a 2 cm Richmond cotton wick (Petty John Packaging, Inc. Concord, N.C.) at 0.001, 0.01, 0.1, 1.0, 10.0 and 100.0 μg dosages. The control treatment consisted of a cotton wick impregnated with solvent only. The solvent from both treatments was allowed to evaporate within a fume hood for 30 min prior to assays. The bioassay procedures with synthetic chemicals were identical to those described earlier for plant samples. However, in this case, treatments (odor sources) were placed into solid phase micro extraction chambers (SPMEC) (ARS, Gainesville, Fla.) instead of the GVCC described above. The SPMEC consists of a straight glass tube (17.5 cm long×2.5 cm internal diameter) supported with an inlet and outlet valve for incoming and outgoing air streams, respectively. […]

COC(=O)c1ccccc1N [Methyl anthranilate, methyl anthranilate]
Behavioral response of D. citri (attraction/repulsion) (any of the dosages tested (0.001-100 μg)): did not attract or repel | Proportion of D. citri responding to treatment arm (dosage 0.001 μg on cotton wick): 58.06 | Proportion of D. citri responding to treatment arm (dosage 0.01 μg on cotton wick): 57.14 | Proportion of D. citri responding to treatment arm (dosage 0.1 μg on cotton wick): 61.76 | Proportion of D. citri responding to treatment arm (dosage 1.0 μg on cotton wick): 57.33 | Proportion of D. citri responding to treatment arm (dosage 10.0 μg on cotton wick): 56.10 | Proportion of D. citri responding to treatment arm (dosage 100.0 μg on cotton wick): 52.27

C=CC(C)=CCC=C(C)C [β-ocimene, reference compound]
Behavioral response of D. citri (attraction/repulsion) (1-100 μg dosages): attractive | Proportion of D. citri responding to treatment arm (dosage 0.001 μg on cotton wick): 52.22 | Proportion of D. citri responding to treatment arm (dosage 0.01 μg on cotton wick): 54.46 | Proportion of D. citri responding to treatment arm (dosage 0.1 μg on cotton wick): 53.19 | Proportion of D. citri responding to treatment arm (dosage 1.0 μg on cotton wick): 60.44 | Proportion of D. citri responding to treatment arm (dosage 10.0 μg on cotton wick): 61.46 | Proportion of D. citri responding to treatment arm (dosage 100.0 μg on cotton wick): 62.77

COC(=O)c1ccccc1O [Methyl salicylate, methyl salicylate]
Behavioral response of D. citri (attraction/repulsion) (0.001 μg dosage): attracted | Behavioral response of D. citri (attraction/repulsion) (100 μg dosage): repelled | Proportion of D. citri responding to treatment arm (dosage 0.001 μg on cotton wick): 54.00 | Proportion of D. citri responding to treatment arm (dosage 0.01 μg on cotton wick): 60.44 | Proportion of D. citri responding to treatment arm (dosage 0.1 μg on cotton wick): 54.76 | Proportion of D. citri responding to treatment arm (dosage 1.0 μg on cotton wick): 45.12 | Proportion of D. citri responding to treatment arm (dosage 10.0 μg on cotton wick): 41.03 | Proportion of D. citri responding to treatment arm (dosage 100.0 μg on cotton wick): 39.56

C=C(C)[C@H]1CC=C(C)CC1 [D-limonene]
Behavioral response of D. citri (attraction/repulsion) (100 μg dosage): attracted | Proportion of D. citri responding to treatment arm (dosage 0.001 μg on cotton wick): 56.06 | Proportion of D. citri responding to treatment arm (dosage 0.01 μg on cotton wick): 60.87 | Proportion of D. citri responding to treatment arm (dosage 0.1 μg on cotton wick): 54.39 | Proportion of D. citri responding to treatment arm (dosage 1.0 μg on cotton wick): 54.65 | Proportion of D. citri responding to treatment arm (dosage 10.0 μg on cotton wick): 60.24 | Proportion of D. citri responding to treatment arm (dosage 100.0 μg on cotton wick): 61.54
